# Results taken from US7973181B2, “Hydroxamic acid derivatives as inhibitors of HDAC enzymatic activity” (Chroma Therapeutics Ltd., priority 2005, dated 2011).
# Key:
# [1] = test system: HUT; experiment: Cell inhibition assay (SRB cell viability), HUT; type: cell-based; details: 72 h, HUT cells
# Procedure: (§1) The corresponding cancer cell lines (Hela, U937 and HUT) growing in log phase were harvested and seeded at 1000 cells/well (200 ul final volume) into 96-well tissue culture plates. Following 24 h of cell growth cells were treated with compounds (final concentration of 20 uM). Plates were then re-incubated for a further 72 h before a sulphorhodamine B (SRB) cell viability assay was conducted according to Skehan 1990 J Natl Canc Inst 82, 1107-1112.
# (§2) Data were expressed as a percentage inhibition of the control, measured in the absence of inhibitor, as follows: — % inhibition=100−((S^i/S^o)×100) where S^i is the signal in the presence of inhibitor and S^o is the signal in the presence of DMSO.
# (§3) IC50 values were determined by non-linear regression analysis, after fitting the results of eight data points to the equation for sigmoidal dose response with variable slope (% activity against log concentration of compound), using Graphpad Prism software.
# (§4) Results of testing the compounds of the examples in this assay are given in the third- fifth columns of Table 1.
# [2] = target: histone deacetylase activity (HeLa nuclear extract); experiment: HDAC fluorescent activity assay (Biomol Fluor de Lys), HeLa nuclear extract; type: biochemical; details: Fluor de Lys substrate
# Procedure: The ability of compounds to inhibit histone deacetylase activities was measured using the commercially available HDAC fluorescent activity assay from Biomol. In brief, the Fluor de Lys™ substrate, a lysine with an epsilon-amino acetylation, is incubated with the source of histone deacetylase activity (HeLa nuclear extract) in the presence or absence of inhibitor.
# Deacetylation of the substrate sensitises the substrate to Fluor de Lys™ developer, which generates a fluorophore. Thus, incubation of the substrate with a source of HDAC activity results in an increase in signal that is diminished in the presence of an HDAC inhibitor.
# Data are expressed as a percentage of the control, measured in the absence of inhibitor, with background signal being subtracted from all samples, as follows: — % activity=((S^i−B)/(S^o−B))×100 where S^i is the signal in the presence of substrate, enzyme and inhibitor, S^o is the signal in the presence of substrate, enzyme and the vehicle in which the inhibitor is dissolved, and B is the background signal measured in the absence of enzyme.
# as §3
# Histone deacetylase activity from crude nuclear extract derived from HeLa cells was used for screening. The preparation, purchased from 4C (Seneffe, Belgium), was prepared from HeLa cells harvested whilst in exponential growth phase. The nuclear extract is prepared according to Dignam JD1983 Nucl. Acid. Res. 11, 1475-1489, snap frozen in liquid nitrogen and stored at −80° C. The final buffer composition was 20 mM Hepes, 100 mM KCl, 0.2 mM EDTA, 0.5 mM DTT, 0.2 mM PMSF and 20% (v/v) glycerol.
# Results of testing the compounds of the examples in this assay are given in the second column of Table 1 below.
# [3] = test system: Hela; experiment: Cell inhibition assay (SRB cell viability), Hela; type: cell-based; details: Homo sapiens, HeLa, 72 h, Hela cells
# Procedure: as §1, §2, §3, §4
# [4] = test system: U937; experiment: Cell inhibition assay (SRB cell viability), U937; type: cell-based; details: Homo sapiens, U-937, 72 h, U937 cells
# Procedure: as §1, §2, §3, §4
Structure (SMILES),IC50 [2] [µM],IC50 [3] [µM],IC50 [4] [µM],IC50 [1] [µM]
"N[C@@H](CC1CCC(Oc2ccc(CNCc3ccc4cc(C(=O)NO)sc4c3)cc2)CC1)C(=O)OC1CCCC1 (stereo partly drawn) [Example 28, 2-(S)-Amino-3-[4-(4-{[(2-hydroxycarbamoyl-benzo[b]thiophen-6-ylmethyl)-amino]-methyl}-phenoxy)-cyclohexyl]-propionic acid cyclopentyl ester]",< 0.1,0.33 to 3.3,< 0.33,< 0.33
"N[C@H](CCOc1ccc(CNCc2ccc3cc(C(=O)NO)sc3c2)cc1)C(=O)OC1CCCC1 [Example 13, (R)-2-Amino-4-(4-{[(2-hydroxycarbamoyl-benzo[b]thiophen-6-ylmethyl)-amino]-methyl}phenoxy)-butyric acid cyclopentyl ester]",< 0.1,< 0.33,< 0.33,< 0.33
"CC(=O)N[C@@H](CCCOc1ccc(CNCc2ccc3cc(C(=O)NO)sc3c2)cc1)C(=O)OC1CCCC1 [Example 21, (S)-2-Acetylamino-5-(4-{[(2-hydroxycarbamoyl-benzo[b]thiophen-6-ylmethyl)-amino]-methyl}-phenoxy)-pentanoic acid cyclopentyl ester]",< 0.1,0.33 to 3.3,0.33 to 3.3,< 0.33
"CC(=O)N[C@@H](Cc1ccc(NC(=O)CCCCCCC(=O)NO)cc1)C(=O)OC1CCCC1 [Example 1, (S)-2-Acetylamino-3-[4-(7-hydroxycarbamoyl-heptanoylamino)-phenyl]-propionic acid cyclopentyl ester]",0.101 to 1,> 3.3,0.33 to 3.3,0.33 to 3.3
"N[C@@H](Cc1ccc(Oc2ccc(CNCc3ccc4cc(C(=O)NO)sc4c3)cc2)cc1)C(=O)OC1CCCC1 [Example 26, (S)-2-Amino-3-[4-(4-{[(2-hydroxycarbamoyl-benzo[b]thiophen-6-ylmethyl)-amino]-methyl}-phenoxy)-phenyl]-propionic acid cyclopentyl ester]",< 0.1,0.33 to 3.3,< 0.33,< 0.33

# Second part, led by results:
IC50 [2] [µM],IC50 [3] [µM],IC50 [4] [µM],Structure (SMILES),IC50 [1] [µM]
< 0.1,0.33 to 3.3,< 0.33,"N[C@H](C(=O)OC1CCCC1)c1ccc(Oc2ccc(CNCc3ccc4cc(C(=O)NO)sc4c3)cc2)cc1 [Example 24, (S)-Amino-[4-(4-{[(2-hydroxycarbamoyl-benzo[b]thiophen-6-ylmethyl)-amino]-methyl}-phenoxy)-phenyl]-acetic acid cyclopentyl ester]",< 0.33
< 0.1,< 0.33,< 0.33,"N[C@@H](CCOc1ccc(CNCc2ccc3cc(C(=O)NO)sc3c2)cc1)C(=O)OC1CCCC1 [Example 9, (S)-2-Amino-4-(4-{[(2-hydroxycarbamoyl-benzo[b]thiophen-6-ylmethyl)-amino]-methyl}-phenoxy)-butyric acid cyclopentyl ester]",< 0.33
< 0.1,< 0.33,< 0.33,"N[C@@H](CCCOc1ccc(CNCc2ccc3cc(C(=O)NO)sc3c2)cc1)C(=O)OC1CCCC1 [Example 11, (S)-2-Amino-5-(4-{[(2-hydroxycarbamoyl-benzo[b]thiophen-6-ylmethyl)-amino]-methyl}-phenoxy)-pentanoic acid cyclopentyl ester]",< 0.33
